The source of these data is patent US11098040B2, “Compounds and methods of use” (Ferro Therapeutics, Inc., priority 2018, dated 2021).

In one series the test system is MiaPaCa-2. Kind of series: Cell viability assay (CellTiter Glo), pancreatic carcinoma MiaPaCa-2. It is filed as cell-based. The note with it: Homo sapiens, MIA PaCa-2; pancreatic carcinoma, 96 hours, CellTiter Glo; read-out: IC50 MiaPaCa-2. In a few lines:
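MiaPaCa-2 and AsPC-1 cells were seeded overnight at 37 °C and exposed for 96 h to 9-point, 3-fold dilutions from up to 30 μM (final DMSO ≤0.25%). CellTiter Glo luminescence was read, and inhibition was calculated relative to DMSO-only cells. IC50, relative IC50 or % top inhibition was derived.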
On the technique in general: Cellular ATP, detected with luciferase, serves as a proxy for viable cell number.

Series [1] can be described thus: Pharmacokinetic (PK) studies in Balb/C nude mice via intraperitoneal injection. The note with it: male, Balb/c nude, mouse, plasma, ip, 15 mg/kg, Calculated Concentration, IP 15 mg/kg, Balb/C nude mice.
A further series deals with MCF-10A. Kind of series: Cell viability assay (CellTiter Glo), non-tumorigenic breast epithelial cell line MCF-10A. It is filed as cell-based. Particulars: Homo sapiens, 96 hours. In a few lines:
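Non-tumorigenic breast epithelial MCF-10A line, exposed for 96 hours to compound (top concentration up to 30 μM, 3-fold steps, duplicates, final DMSO 0.25% or less). ATP luminescence (CellTiter Glo) normalised to DMSO controls yields IC50, relative IC50 or % top inhibition; paclitaxel served as cytotoxic control.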

The subject of another series is 143B. Kind of series: Cell viability assay (CellTiter Glo), osteosarcoma 143B. It is filed as cell-based. The note with it: Homo sapiens, 96 h, osteosarcoma, 96 hours, CellTiter Glo, read-out: IC50 143B. As for the experimental part:
(§1) Cell viability assay was performed to assess the potency of the compounds in human cancer cell lines KP4 (pancreatic ductal adenocarcinoma), MiaPaCa-2 (pancreatic carcinoma), AsPC-1 (pancreatic adenocarcinoma, ascites), 143B (osteosarcoma), and SJSA-1 (osteosarcoma). Selected compounds were also assayed in a human breast epithelial cell line MCF-10A, a nontumorigenic cell line as a control to assess differential activity. Cells at a density of 500-5,000 cells/well were seeded in 96-well plates and incubated at 37° C. overnight. A series of 9 different concentrations of compound stocks (500×) were created by 3-fold serial dilution in DMSO. These compounds were further diluted in culture media and then added to cells so that the final DMSO concentration was equal to 0.25% or less. After 96 hours of incubation, 50 μL of CellTiter Glo reagent (Promega) was added to each well and luminescence was measured after 10 minutes using EnVision (PerkinElmer). Compounds titrated from top concentration of up to 30 μM. The select compounds were tested initially from 30 μM as the top concentration in duplicates (range of 4.6 nM-30 μM). […] Luminescence from cells treated with DMSO alone was set as Max and % of inhibition was calculated as follows: Inhibition %=(Max-Sample value)/Max*100. Data was analyzed using XL-fit software (ID Business Solutions Ltd.). IC50, relative IC50, or % of top inhibition was calculated.
(§2) The results of the assay in sarcoma cell lines are given in Table 21a for HT-1080 luc2 (fibrosarcoma expressing a luciferase gene), Table 21b for 143B (osteosarcoma), and Table 21c for SJSA-1 (osteosarcoma).

For the next series, the system named is SJSA-1. Kind of series: Cell viability assay (CellTiter Glo), osteosarcoma SJSA-1. It is filed as cell-based. The note with it: Homo sapiens, 96 hours. The procedure:
as §1, §2

Series [2] is described as follows: Whole blood stability, human. It is filed as in vitro ADME. From the text: (§3) The results of the assay on stability in blood and IC50 values for pancreatic cancer cell line KP4 are given below in Table 24.
Series [3] is described as follows: Whole blood stability, mouse. It is filed as in vitro ADME.
Text: as §3

The test system of the next series is AsPC-1. The series is described as follows: Cell viability assay (CellTiter Glo), pancreatic adenocarcinoma AsPC-1. It is filed as cell-based. The note with it: Homo sapiens, ASPC1; pancreatic adenocarcinoma, ascites, 96 hours, CellTiter Glo; read-out: IC50 AsPC-1. The procedure:
as §1
The results of the assay in the pancreatic cell lines are given in Table 15a for PANC1, Table 15b for MiaPaCa-2, and Table 15c for AsPC-1.

The subject of another series is KP4. The series is described as follows: Cell viability assay (CellTiter Glo), pancreatic ductal adenocarcinoma KP4. It is filed as cell-based, human. Particulars: Homo sapiens, KP-4, 96 h, pancreatic cancer cell line KP4, 96 hours, CellTiter Glo; read-out: IC50 μM KP4. A digest of the protocol: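 Luminescent ATP readout (CellTiter Glo) after 96 h compound exposure, normalized to DMSO-treated cells as maximum. Compounds ran in duplicate, nine 3-fold steps from 30 μM down to 4.6 nM, final DMSO ≤0.25%; KP4 plated overnight at 1,000–10,000 cells/well. Outputs: IC50, relative IC50 or % top inhibition.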

pIC50: −log10 of the molar value. A value given as a limit tells only on which side of the number the result lay.

Take `CN(C)C(=O)[C@H]1Cc2c([nH]c3ccccc23)[C@H](c2ccc([Si](C)(C)C)cc2)N1C(=O)CCl` [Example 67]: the negative-log IC50 (pIC50) in the series on MiaPaCa-2 is 6.09. In addition, in series [1] (individual mice), the concentration at 0.5 h was 0.0906 µg/mL, the concentration at 1 h was 0.0387 µg/mL and the concentration at 4 h is 0.0166 µg/mL. Further, in series [1] (Mean, mean of 3 mice), the concentration at 0.5 h is 0.112 µg/mL, the concentration at 1 h is 0.0517 µg/mL and the concentration at 4 h was 0.0144 µg/mL. The concentration at 2 h in series [1] (Mean, 2 h, mean of 3 mice) is 0.0202 µg/mL.
`COC(=O)[C@H]1Cc2c([nH]c3ccccc23)[C@H](c2ccc(C(=O)NCCNC(=O)OC(C)(C)C)cc2)N1C(=O)CCl` [Example 16]: the pIC50 with MiaPaCa-2 was 7.62; in the series with MCF-10A, 5.71; with 143B it was 6.98; in the series with SJSA-1 it was 6.70.
The like results for `COC(=O)[C@H]1Cc2c([nH]c3ccccc23)[C@H](c2ccc(S(=O)(=O)N(C)C)cc2)N1C(=O)CCl` [Example 23] were, in that order, 7.44, 5.62, 7.47 and 7.05.
The like results for `CN(C)C(=O)[C@H]1Cc2c([nH]c3ccccc23)[C@H](c2ccc(C(=O)OC(C)(C)C)cc2)N1C(=O)CCl` [Example 21] were, in that order, 7.19, 5.80, 7.05 and 6.77.
For `CNS(=O)(=O)c1ccc([C@H]2c3[nH]c4ccccc4c3C[C@H](C(=O)OC)N2C(=O)CCl)cc1` [Example 22] the same measures were 7.41, 5.48, 7.13 and 6.69.
As for `[2H]C([2H])([2H])OC(=O)[C@H]1Cc2c([nH]c3ccccc23)[C@H](c2ccc(C(=O)OC)cc2)N1C(=O)CCl` [CC], the results for the “Whole Blood Stability % Remaining at 37° C. Human” value in [2] (0 min), in [2] (30 min) and in series [2] (60 min) were 100.0%, 63.8% and 33.5%, respectively. In addition, the “Whole Blood Stability % Remaining at 37° C. Mouse” value in series [3] (0 min) is 100.0%; in [3] (30 min), 0.0%; in [3] (60 min), 0.0%. The negative logarithm of the IC50 (pIC50) is 5.77 with MCF-10A and 6.93 with AsPC-1. The 50% inhibitory concentration (IC50) with KP4 was under 0.01 µM.
For `CC(C)(C)OC(=O)[C@H]1Cc2c([nH]c3ccccc23)[C@H](c2ccc([N+](=O)[O-])cc2)N1C(=O)CCl` [Example 11], the pIC50 in the series on MiaPaCa-2 was 7.04; in the series on 143B it was 6.87; with SJSA-1 it was 6.49.
The like results for `CNC(=O)c1ccc([C@H]2c3[nH]c4ccccc4c3C[C@H](C(=O)OC)N2C(=O)CCl)cc1` [Example 7] were, in that order, 6.92, 6.56 and 6.16.
For `COC(=O)[C@H]1Cc2c([nH]c3ccccc23)[C@H](c2ccc(OC(=O)C(C)(C)C)cc2)N1C(=O)CCl` [Example 13], the pIC50 in the series on MiaPaCa-2 is 6.88; in the series on MCF-10A, 5.52; in the series on 143B, 6.96; in the series with SJSA-1, 6.80.
For `COC(=O)[C@H]1Cc2c([nH]c3ccccc23)[C@H](c2ccc(OC(C)=O)cc2)N1C(=O)CCl` [Example 12] the same measures were 7.16, 5.85, 7.09 and 6.83.
In the case of `COC(=O)[C@H]1Cc2c([nH]c3ccccc23)[C@H](c2ccc(C(=O)N(C)C)cc2)N1C(=O)CCl` [Example 8], the pIC50 was 7.11 in the series on MiaPaCa-2, 6.84 in the series on 143B and 6.60 in the series on SJSA-1.
Take `CC(C)(C)OC(=O)c1ccc([C@H]2c3[nH]c4ccccc4c3C[C@H](C(=O)OC(C)(C)C)N2C(=O)CCl)cc1` [Example 19]: the negative-log IC50 (pIC50) in the series with MiaPaCa-2 was 7.20; in the series with MCF-10A, 6.37; in the series on 143B it was 7.00; in the series on SJSA-1, 6.67.
The like results for `COC(=O)[C@H]1Cc2c([nH]c3ccccc23)[C@H](c2ccc(C(=O)NC(C(=O)O)C(C)(C)C)cc2)N1C(=O)CCl` (stereo partly shown) [Example 10] were, in that order, 5.80, under 4.52, 5.36 and 4.82.
The like results for `COC(=O)[C@H]1Cc2c([nH]c3ccccc23)[C@H](c2ccc(C(=O)NC(C)(C)C)cc2)N1C(=O)CCl` [Example 9] were, in that order, 7.92, 5.64, 7.49 and 7.16.
In the case of `[2H]C([2H])(Cl)C(=O)N1[C@@H](c2ccc(C(=O)OC(C)(C)C)cc2)c2[nH]c3ccccc3c2C[C@@H]1C(=O)OC` [BZ], the “Whole Blood Stability % Remaining at 37° C. Human” value in series [2] (0 min) stood at 100.0%; in series [2] (30 min), 73.5%; in series [2] (60 min) it was 40.8%. Besides, the entries for the “Whole Blood Stability % Remaining at 37° C. Mouse” value in series [3] (0 min), in series [3] (30 min) and in [3] (60 min) were 100.0%, 65.4% and 30.7%, respectively. The pIC50 in the series with MCF-10A was 6.23; in the series on AsPC-1, 7.52. In addition, in the series on KP4, the IC50 is under 0.01 µM.
As to `COC(=O)[C@H]1Cc2c([nH]c3ccccc23)[C@H](c2ccc(C(=O)OC[C@]34C[C@H]5C[C@H](C[C@H](C5)C3)C4)cc2)N1C(=O)CCl` [Example 6], the pIC50 in the series with MiaPaCa-2 was 7.26; in the series on MCF-10A it was 5.42; in the series with 143B, 7.06; in the series with SJSA-1 it was 6.84.
Regarding `[2H]C([2H])([2H])OC(=O)[C@H]1Cc2c([nH]c3ccccc23)[C@H](c2ccc(C(=O)OC(C)(C)C)cc2)N1C(=O)CCl` [CA], the entries for the “Whole Blood Stability % Remaining at 37° C. Human” value in series [2] (0 min), in series [2] (30 min) and in series [2] (60 min) were 100.0%, 86.9% and 48.9%, respectively. Moreover, the “Whole Blood Stability % Remaining at 37° C. Mouse” value in series [3] (0 min) is 100.0%; in series [3] (30 min), 80.8%; in series [3] (60 min) it was 33.2%. The negative-log IC50 (pIC50) with MCF-10A is 6.33; with AsPC-1, 7.64. In the series on KP4, the 50% inhibitory concentration (IC50) was under 0.01 µM.
Take `CC(C)OC(=O)[C@H]1Cc2c([nH]c3ccccc23)[C@H](c2ccc(C(=O)OC(C)(C)C)cc2)N1C(=O)CCl` [Example 20]: the pIC50 with MiaPaCa-2 was 7.43; with MCF-10A, 6.09; with 143B it was 7.12; in the series on SJSA-1 it was 6.83.
With `COC(=O)c1ccc([C@H]2c3[nH]c4ccccc4c3C[C@H](C(=O)OC(C)(C)C)N2C(=O)CCl)cc1` [Example 2], the pIC50 in the series with MiaPaCa-2 was 7.22; with 143B, 6.82; in the series on SJSA-1, 6.63.

What is called pIC50 is −log10 of the IC50, conventionally taken in molar units. As usually defined, the IC50 is the concentration that inhibits the measured activity by half.
